From patent US10543223B2, “Mannose derivatives useful for treating pathologies associated with adherent E. coli” (ENTEROME, priority 2015, dated 2020)
Several values for one entry are separate records, joined by “and”; a condition that tells them apart may be missing. Equal entries are not always repeated. Where two headings read alike, the source gives them in different places.

How the values were obtained:
[1] = Faeces concentrations and recovery after IV and PO administration to rats; type: in vivo, Sprague Dawley rats; conditions: 0-24 h; for dose excreted: Sprague Dawley, rat, faeces
Experimental: Plasma and faeces concentrations after administration of Compound 1b and for compound 13 of WO 2014/016361 at 1 mg/kg by intravenous route and 10 mg/kg by oral route to Sprague Dawley rats Blank rat faeces are homogenized with 3 volumes of UHQ water until obtention of a paste. Then 100 μL of the homogenate are spiked with the molecules and precipitated with 300 μL of acetonitrile. The concentration ranges tested are: • 0.5 ng/mL to 1000 ng/mL for plasma, • 4 to 2000 ng/g for faeces, corresponding to 1 to 500 ng/mL of faeces homogenate. 3. In-Life Part After administration, the animals are placed in individual metabolic cages in order to collect faeces samples during 24 hours. Faeces samples are collected over the 24 hours of the experiment. They are precisely weighed and 3 volumes of UHQ water are added. The mixture is homogeneized until obtention of a paste. Then 100 μL of the homogenate are taken and extracted with 300 μL of Acetonitrile. Analysis is performed using LC-MS/MS determination according to previous analytical test results.

[2] = Plasma concentrations and pharmacokinetics after IV and PO administration to rats; type: in vivo, Sprague Dawley rats; conditions: for % AUCextra / AUC(0-inf) / AUC(0-t) / Cmax / Tmax: DMSO, based on mean data
Experimental: Plasma and faeces concentrations after administration of Compound 1b and for compound 13 of WO 2014/016361 at 1 mg/kg by intravenous route and 10 mg/kg by oral route to Sprague Dawley rats
At least 8 point calibration standards are run using standard conditions which consist to LC-MS/MS system with C18 column after precipitation of proteins with acetonitrile before the start of the analytical test.
For the plasma, 100 μL of blank rat plasma are directly spiked with the compounds before being precipitate with 300 μL of acetonitrile.
The concentration ranges tested are: • 0.5 ng/mL to 1000 ng/mL for plasma, • 4 to 2000 ng/g for faeces, corresponding to 1 to 500 ng/mL of faeces homogenate. 3. In-Life Part
12 male Sprague Dawley rats around 6-7 week old are used.
At prescribed times, blood is collected. Animals are briefly anaesthetised with Isoflurane® using an anaesthetic system (Équipement Vétérinaire Minerve) during blood samplings.
Blood samples are centrifuged at 2500 rpm at +4° C. (between 0 and 9° C.), the plasma is removed and placed into labelled polypropylene tubes. Individual plasma samples are stored frozen at −20° C. (target temperature) until analysis.
100 μL of the plasma sample are taken and 300 μL of acetonitrile are added. After protein precipitation, analysis is performed using LC-MS/MS determination according to previous analytical test results.
Concentrations of the samples are calculated directly from chromatograms after automatic integration by Analyst® 1.5.1 and expressed as ng/mL.
Mean plasma concentrations are calculated (when calculable, i.e. n≥2) using individual concentration and are expressed with the corresponding standard deviation value and variation coefficient (when calculable, i.e. n≥3), with
[formula] The individual plasma concentrations are tabulated for each rat and scheduled sampling time. Concentrations below the LLOQ are indicated by BLQ. All BLQ concentrations are substituted by zero for calculation of the descriptive statistics of the concentrations. 5. Results Estimation of pharmacokinetics parameters is performed using Kinetica® (Version 4.3—Thermo Electron Corporation—Philadelphia—USA). It was performed by using a one-compartment model approach, which considers the body as a single compartment in which the concentration is homogeneous. The following parameters are estimated: Cmax (ng/mL): maximal plasma concentration Tmax (h): first time to reach Cmax AUCt (ng/mL*h): area under the plasma concentration-time curve from administration up to the last quantifiable concentration at time t
[formula] “BLQ” stands for “Below the Limit of Quantification” ([…] for plasma). Compound 1b

[3] = IV 1 mg/kg, individual rats IV1-IV3, 1 mg/kg
[4] = PO 10 mg/kg, individual rats PO4-PO6, 10 mg/kg
[5] = male, Sprague Dawley, rat, plasma, IV 1 mg/kg
[6] = male, Sprague Dawley, rat, plasma, PO 10 mg/kg

Faeces concentration [1, 3]: 3303 ng/g and 3130 ng/g and 3346 ng/g
Faeces concentration (homogenate) [1, 3]: 826 ng/mL and 783 ng/mL and 836 ng/mL
Recovery in faeces [1, 3]: 10.9% and 15.9%
Total amount of compound in faeces [1, 3]: 30095 ng and 28426 ng and 38053 ng
Faeces concentration (homogenate), mean ([1]; IV 1 mg/kg, mean of 3 rats): 815 ng/mL
Faeces concentration, mean ([1]; IV 1 mg/kg, mean of 3 rats): 3260 ng/g
Total amount of compound in faeces, mean ([1]; IV 1 mg/kg, mean of 3 rats): 32191 ng
Recovery in faeces [1, 4]: 57.9% and 49.3%
Total amount of compound in faeces [1, 4]: 1203583 ng and 1389086 ng and 1183679 ng
Faeces concentration (homogenate), mean ([1]; PO 10 mg/kg, mean of 3 rats): 33510 ng/mL
Faeces concentration, mean ([1]; PO 10 mg/kg, mean of 3 rats): 134039 ng/g
Total amount of compound in faeces, mean ([1]; PO 10 mg/kg, mean of 3 rats): 1258783 ng
dose excreted ([1]; iv, 1 mg/kg, IV 1 mg/kg, individual rats IV1-IV3, read-out: Recovery in faeces): 13.1%
dose excreted ([1]; iv, 1 mg/kg, IV 1 mg/kg, mean of 3 rats, read-out: Recovery in faeces, mean): 13.3%
dose excreted ([1]; po, 10 mg/kg, PO 10 mg/kg, individual rats PO4-PO6, read-out: Recovery in faeces): 50.1%
Plasma concentration ([2]; IV 1 mg/kg, 0.083 h, individual rats IV1-IV3, 1 mg/kg): 1451.7 ng/mL and 1443.6 ng/mL
Plasma concentration ([2]; IV 1 mg/kg, 0.5 h, individual rats IV1-IV3, 1 mg/kg): 67.6 ng/mL and 58.5 ng/mL
Plasma concentration ([2]; IV 1 mg/kg, 2 h, individual rats IV1-IV3, 1 mg/kg): 1.6 ng/mL and 1.8 ng/mL
Plasma concentration ([2]; IV 1 mg/kg, 6 h, individual rats IV1-IV3): BLQ
Plasma concentration ([2]; IV 1 mg/kg, 24 h, individual rats IV1-IV3): BLQ
% AUCextra ([2]; IV 1 mg/kg): 0.11%
Plasma concentration ([2]; PO 10 mg/kg, 0.5 h, individual rats PO4-PO6, 10 mg/kg): 10.9 ng/mL and 7.0 ng/mL
Plasma concentration ([2]; PO 10 mg/kg, 1 h, individual rats PO4-PO6, 10 mg/kg): 4.6 ng/mL and 5.4 ng/mL
Plasma concentration ([2]; PO 10 mg/kg, 2 h, individual rats PO4-PO6, 10 mg/kg): 2.3 ng/mL and 2.0 ng/mL
Plasma concentration ([2]; PO 10 mg/kg, 6 h, individual rats PO4-PO6, 10 mg/kg): 1.9 ng/mL and 1.6 ng/mL
Plasma concentration ([2]; PO 10 mg/kg, 24 h, individual rats PO4-PO6): BLQ
% AUCextra ([2]; PO 10 mg/kg): 32.3%
concentration at 0.083 h ([2]; male, Sprague Dawley, rat, plasma, iv, 1 mg/kg, IV 1 mg/kg, 0.083 h, individual rats IV1-IV3, read-out: Plasma concentration): 1130 ng/mL
concentration at 0.083 h ([2]; male, Sprague Dawley, rat, plasma, iv, 1 mg/kg, IV 1 mg/kg, 0.083 h, mean of 3 rats (BLQ = 0), read-out: Plasma concentration, mean): 1340 ng/mL
concentration at 0.5 h ([2]; male, Sprague Dawley, rat, plasma, iv, 1 mg/kg, IV 1 mg/kg, 0.5 h, individual rats IV1-IV3, read-out: Plasma concentration): 56.1 ng/mL
concentration at 0.5 h ([2]; male, Sprague Dawley, rat, plasma, iv, 1 mg/kg, IV 1 mg/kg, 0.5 h, mean of 3 rats (BLQ = 0), read-out: Plasma concentration, mean): 60.8 ng/mL
concentration at 2 h ([2]; male, Sprague Dawley, rat, plasma, iv, 1 mg/kg, IV 1 mg/kg, 2 h, individual rats IV1-IV3, read-out: Plasma concentration): 1.6 ng/mL
concentration at 2 h ([2]; male, Sprague Dawley, rat, plasma, iv, 1 mg/kg, IV 1 mg/kg, 2 h, mean of 3 rats (BLQ = 0), read-out: Plasma concentration, mean): 1.6 ng/mL
concentration at 6 h ([2]; male, Sprague Dawley, rat, plasma, iv, 1 mg/kg, IV 1 mg/kg, 6 h, mean of 3 rats (BLQ = 0), read-out: Plasma concentration, mean): 0 ng/mL
concentration at 24 h ([2]; male, Sprague Dawley, rat, plasma, iv, 1 mg/kg, IV 1 mg/kg, 24 h, mean of 3 rats (BLQ = 0)): 0 ng/mL
concentration at 0.5 h ([2]; male, Sprague Dawley, rat, plasma, po, 10 mg/kg, PO 10 mg/kg, 0.5 h, individual rats PO4-PO6, read-out: Plasma concentration): 5.5 ng/mL
concentration at 0.5 h ([2]; male, Sprague Dawley, rat, plasma, po, 10 mg/kg, PO 10 mg/kg, 0.5 h, mean of 3 rats (BLQ = 0), read-out: Plasma concentration, mean): 7.8 ng/mL
concentration at 1 h ([2]; male, Sprague Dawley, rat, plasma, po, 10 mg/kg, PO 10 mg/kg, 1 h, individual rats PO4-PO6, read-out: Plasma concentration): 3.3 ng/mL
concentration at 1 h ([2]; male, Sprague Dawley, rat, plasma, po, 10 mg/kg, PO 10 mg/kg, 1 h, mean of 3 rats (BLQ = 0), read-out: Plasma concentration, mean): 4.4 ng/mL
concentration at 2 h ([2]; male, Sprague Dawley, rat, plasma, po, 10 mg/kg, PO 10 mg/kg, 2 h, individual rats PO4-PO6, read-out: Plasma concentration): 1.9 ng/mL
concentration at 2 h ([2]; male, Sprague Dawley, rat, plasma, po, 10 mg/kg, PO 10 mg/kg, 2 h, mean of 3 rats (BLQ = 0), read-out: Plasma concentration, mean): 2 ng/mL
concentration at 6 h ([2]; male, Sprague Dawley, rat, plasma, po, 10 mg/kg, PO 10 mg/kg, 6 h, individual rats PO4-PO6, read-out: Plasma concentration): 1.7 ng/mL
concentration at 6 h ([2]; male, Sprague Dawley, rat, plasma, po, 10 mg/kg, PO 10 mg/kg, 6 h, mean of 3 rats (BLQ = 0), read-out: Plasma concentration, mean): 1.7 ng/mL
concentration at 24 h ([2]; male, Sprague Dawley, rat, plasma, po, 10 mg/kg, PO 10 mg/kg, 24 h, mean of 3 rats (BLQ = 0)): 0 ng/mL
AUC(0-inf) [2, 5]: 452 ng·h/mL
AUC(0-t) [2, 5]: 451 ng·h/mL
Cmax [2, 5]: 1340 ng/mL
Tmax [2, 5]: 4.8 min
bioavailability ([2]; male, Sprague Dawley, rat, plasma, PO 10 mg/kg vs IV 1 mg/kg, calculated based on AUCt, read-out: F (bioavailability)): 0.3%
AUC(0-t) [2, 6]: 16 ng·h/mL
Cmax [2, 6]: 7.79 ng/mL
Tmax [2, 6]: 30 min
AUC(0-inf) ([2]; male, Sprague Dawley, rat, plasma, PO 10 mg/kg, % AUC extra >20%: value given for indication): 23.3 ng·h/mL
SMILES: Cc1nc(-c2cnccn2)sc1C(=O)c1cnc(N[C@H]2O[C@H](CO)[C@@H](O)[C@H](O)[C@@H]2O)s1 [13 of WO 2014/016361]
Faeces concentration [1, 4]: 103917 ng/g and 165663 ng/g and 132537 ng/g
Faeces concentration (homogenate) [1, 4]: 25979 ng/mL and 41416 ng/mL and 33134 ng/mL
